# Assay results published in patent US6207411A, “Bacteriocins” (priority 1995, dated 2001).
# Key:
# NCDO496 = assay: MIC of pure nisin; type: cell-based, Lactococcus lactis; details: pure nisin against strain NCDO496
# Source text: (§1) As expected, catalase had no effect on the antimicrobial activity of the 3147 bacteriocin thus eliminating the possibility that the antimicrobial activity may be due to hydrogen peroxide. In addition, none of the strains producing lacticin 3147 were capable of fermenting sucrose. This provides additional evidence that this bacteriocin is not nisin, since the genes encoding nisin (nis A) is linked to genes responsible for sucrose catabolism on the nisin-sucrosetransposon. Tn5276 (Horn et. al., 1991). Thus, all those Nip^+ (nisin-producing) strains studied to date are in addition Suc^+ (Sucrose-fermenting).
# DPC3147 = assay: MIC of pure nisin; type: cell-based, Lactococcus lactis; details: pure nisin against strain DPC3147
# Source text: as §1
# [1] = test system: Streptococcus dysgalactiae M; assay: Frequency of resistance development of a mastitic strain; type: cell-based; details: prolonged exposure
# Source text: As a result of the growing concern over the use of antibiotics for the treatment and prevention of disease in animals the potential of using lacticin 3147 in the prevention of bovine mastitis was investigated. To achieve this the bacteriocin was incorporated into teat seals preparations. These seals are manufactured by Cross Vetpharm (Broomhill Road, Tallaght, Dublin 24. Ireland) and act as a physical barrier in the cow against infection. The bacteriocin provides an additional anti-microbial barrier over the physical one provided by the seal itself. Incorporation of the bacteriocin into the teat seals first required the preparation of the bacteriocin in a highly concentrated and semi-purified form. The anti-microbial effectiveness of lacticin 3147 in the environment of the seal required the addition of either Tween 20 or 80 in concentrations of 2% (FIG. 14A). […] Having successfully prepared effective bacteriocin-containing teat seals a number of animal trials were then performed. These involved exposure of the modified seals to the animal for different time periods after which the seals were removed. […] Other aspects of this study focused on the frequency at which a mastitic strain can develop resistance to lacticin 3147 since this could limit its practical usefulness as an effective antimicrobial under certain conditions. […]
# Pepsin = assay: Protease sensitivity assay; details: enzyme 50 mg/ml in 0.02N HCl
# Description: (§2) The following enzymes were dissolved in sterile distilled H2 O (SDW) to a final concentration of 50 mg/ml: Trypsin (type II, Sigma Chemical Co., Poole, Dorset, England), alpha-chymotrypsin (type II, Sigma), Proteinase K (Sigma), Pronase E (type XIV, Sigma), Catalase (Sigma). Pepsin was dissolved in 0.02N HCl, also to a final concentration of 50 mg/ml. All enzyme solutions were filter sterilised using disposable filters (Rotrand/Red rim 0.2 μm, Schleicher & Schuell). 20 μl aliquots of filtered cell-free bacteriocin solution and 20 μl of each enzyme solution were spotted 1 cm apart on GM17 agar plates and dried for 30 min. All plates were incubated overnight at 30° C. The plates move subsequently overlaid with the indicator organism. […] was evident as a zone of inhibition. Controls included plates with spots of either bacteriocin solution or enzyme solution.
# [2] = test system: Streptococcus dysgalactiae M; assay: Effectiveness on Streptococcus dysgalactiae M (plate counts); type: cell-based; details: 10.240 AU/ml, stationary phase cells, 2 hours, 37° C.
# Description: FIG. 14B. Effect of adding lacticin 3147 (10.240 AU/ml) to stationary cells of Streptococcus dysgalactiae.
# 10 μl from a overnight culture was added to 490 μl of sterile 50 mM phosphate-buffer. pH 7.0 500 μl lacticin 3147 (10,000 AU/ml) was then added and plate counts were carried out after 0, 15, 30, 60, 90 and 120 minutes at 37° C. to assess cell viability.
# [3] = type: physicochemical; details: pH 9, up to 100° C., 10 minutes; 100% = unheated at that pH
# Description: FIG. 6. Effect of heating at 60° C. to 121° C. for 10 minutes on the stability of lacticin 3147 at pH5, pH7, pH9. 100% activity is the activity at pH 5, 7 and 9 with no heating.
# A cell-free bacteriocin was exposed to various pH/temperature treatments. Samples were heated to 60, 70, 80, 90, 100, 110 and 121° C. at pH5, pH7 and pH9 for 10 min. Following treatment, all solutions were rapidly cooled and bacteriocin activity was assayed by the well diffusion method.
# Three samples of bacteriocin were brought to a pH of 5, 7 and 9 and aliquots of each were subsequently heated to 60° C., 70° C., 80° C., 90° C., 100° C., 110° C. and 121° C. for 10 minutes. The activity at each pH prior to heat treatment was measured and was taken to be 100% for that pH value. From the graphical representation in FIG. 6, it can be seen that lacticin 3147 is heat-stable, particularly at an acid pH.
# [4] = test system: four cariogenic streptococci; assay: Sensitivity of oral streptococci; type: cell-based; details: four cariogenic strains from infected patients
# Description: Four cariogenic streptococcal strains isolated from infected patients were grown overnight at 30° C. in Brain Heart Infusion broth. These strains were obtained from Dr. Ger Fitzgerald, University College Cork. The relative sensitivity of each of these strains to the bacteriocin was then determined in comparison to L. lactis HP.
# Pronase E = assay: Protease sensitivity assay; details: enzyme 50 mg/ml spotted beside bacteriocin; indicator L. lactis HP
# Description: (§3) FIGS. 2A, 2B, 2C, 2D, and 2E. Protease Sensitivity Assay. Filtered cell-free bacteriocin solution and enzyme solution (A represents control, no enzyme; B, alpha-chymotrypsin; C, trypsin; D, pronase E and E represents proteinase K) were spotted 1 cm apart on GM17 agar plates and subsequently overlaid with the indicator L. lactis strain HP.
# as §2
# Proteinase K = target: T1, Proteinase K (Parengyodontium album, UniProt P06873); assay: Protease sensitivity assay; details: enzyme 50 mg/ml spotted beside bacteriocin; indicator L. lactis HP
# T1 construct: purchased Sigma
# Description: as §3, §2
# alpha-chymotrypsin = target: T2, alpha-chymotrypsin (Bos taurus, UniProt P00766, DEL14-15/DEL147-148); assay: Protease sensitivity assay; details: enzyme 50 mg/ml spotted beside bacteriocin; indicator L. lactis HP
# T2 construct: purchased Sigma type II
# Description: as §3, §2
# Trypsin = target: T3, Trypsin (Sus scrofa, UniProt P00761); assay: Protease sensitivity assay; details: enzyme 50 mg/ml spotted beside bacteriocin; indicator L. lactis HP
# T3 construct: purchased Sigma Chemical Co., Poole, Dorset, England type II
# Description: as §3, §2
# [5] = Bacteriocin activity in teat seals; details: teat seal without Tween 20 or 80 (2% required)
# Description: FIG. 14A. Antimicrobial effectiveness of lacticin 3147 requires the presence of Tween Au/ml) has been added.
# TY (Tryptone 2.5 g/L, Yeast Extract 5 g/L, Glucose 10 g/L, b-glycerophosphate 19 g/L, MgSO4.7H2O 0.25 g/L, MnSO4.4H2O 0.05 g/L, pH 6.75) broth was prefiltered (15 filter/liter) with HA (Millipore) filters to remove proteins in the media which would bind to the filters. L. lactis DPC 3147 was then grown overnight in the filtered TY-broth. The culture was centrifuged at 10,000 rpm for 15 minutes and then filtered through HVLP filters (Millipore). The bacteriocin was then bound to HA filters (8 filters/liter) and subsequently harvested from the filters using acetone/5 mM Phosphate-Buffer, pH 7.0 (2:1). The mix was subsequently centrifuged and the acetone removed by evaporation. The resultant bacteriocin preparation was freeze-dried and dissolved in sterile distilled water. This was then assayed as above. To add bacteriocin into the teat seal 17,000 units of the bacteriocin prepared as above was added to the seal in a sterile petri disc. On mixing, the bacteriocin and seal formed as emulsion which was then aseptically transferred to a syringe (Cross Vetpharm).
# Catalase = assay: Protease sensitivity assay (catalase); details: enzyme 50 mg/ml
# Description: as §2
# [6] = test system: L. lactis subsp. lactis MG1614; assay: Spontaneous resistance on media containing lacticin 3147; type: cell-based, Lactococcus lactis; details: MG1614 plated up to 10^8 -10^9 CFU/ml
# Description: Plates containing bacteriocin were prepared as follows. A cell-free, sterile bacteriocin solution was obtained from an overnight culture of L. lactis DPC3147 grown in GM17 by first centrifuging at 8000 g (Sorvall RC-5B) for 10 min. The resulting supernatant was then sterilized by filtering with Millipore HVLP filters (0.45 um) and tempered to 45° C. An equal volume was then added to double strength GM17 and the plates were poured. Where needed, streptomycin was added to agar at a concentration of 500 μg/ml.
# During initial genetic work with lacticin 3147, it was observed that the bacteriocin-producing property was an easily lost trait. Preliminary experiments were attempted to establish if bacteriocin production by DPC3147 was encoded on a conjugally transmissable piece of DNA. These conjugal matings involved using DPC3147 as the donor strain and the plasmid-free strain, L. lactis subsp. lactis MG1614, which is streptomycin resistant as the recipient. The selection of transconjugants from such matings was achieved using the plasmid-encoded bacteriocin immunity/resistance determinants as a selectable marker. This involved the incorporation of lacticin 3147 into the selective media. […] The incorporation of lacticin 3147 into selective media may thus form the basis for a novel food-grade marker system for use in genetic manipulation of lactococci. […]
# L. lactis AM2 = assay: Bacteriocin assayed directly in cheese samples; parameters: species or system Lactococcus lactis
# Description: Bacteriocin activity was assayed from cheese samples as follows. Cheese samples were initially macerated in equal volumes of distilled water in a stomacher (Lab-Blender 400) for 15 min and heated to 80° C. for 10 min. Then aliquots of 50 μl were dispensed in wells and bacteriocin activity calculated as the difference in area of the zone of inhibition (in mm2) and the area of the well (as outlined previously).
# Since then we have assayed the bacteriocin in these cheeses. In Cheese trial 1 the presence of lacticin 3147 in take test cheese was confirmed (using L. lactis AM2 as the indicator strain) at a level of approximately 1.280 AU/ml which remained constant in the cheese over the 28-week ripening period (FIG. 13A). In contrast, no anti-microbial activity was detected in the control cheese. Similarly, the amount of bacteriocin detected in cheese trial 2 was approximately 1.280 AU/ml which also remained constant over the ripening period (FIG. 13B). Thus the level of bacteriocin observed in the cheese corresponds to the number of NSLABs which occur in the cheese during ripening.
# T1 sequence (P06873 106-384): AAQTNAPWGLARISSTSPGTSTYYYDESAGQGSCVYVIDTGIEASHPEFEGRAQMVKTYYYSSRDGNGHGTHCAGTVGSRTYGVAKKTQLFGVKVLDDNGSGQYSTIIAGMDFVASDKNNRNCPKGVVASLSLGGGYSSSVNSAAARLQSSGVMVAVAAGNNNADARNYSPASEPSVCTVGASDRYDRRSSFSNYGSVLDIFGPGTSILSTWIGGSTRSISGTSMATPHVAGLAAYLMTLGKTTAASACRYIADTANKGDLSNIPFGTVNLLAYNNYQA
# T3 sequence (P00761 9-231): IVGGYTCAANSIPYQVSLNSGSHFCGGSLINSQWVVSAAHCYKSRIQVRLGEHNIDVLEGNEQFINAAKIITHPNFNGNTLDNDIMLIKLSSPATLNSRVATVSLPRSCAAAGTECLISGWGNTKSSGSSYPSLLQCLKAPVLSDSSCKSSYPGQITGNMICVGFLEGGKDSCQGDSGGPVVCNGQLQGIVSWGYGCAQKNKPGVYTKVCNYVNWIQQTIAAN
Substance,minimum concentrations (MIC) required for inhibition (NCDO496),minimum concentrations (MIC) required for inhibition (DPC3147),Bacterial cells that developed increased tolerance [1],Sensitivity to pepsin (Pepsin),Kill [2],Activity maintained after heating [3],Sensitivity relative to L. lactis HP [4],Sensitivity to pronase E (Pronase E),Sensitivity to proteinase K (Proteinase K),Sensitivity to alpha-chymotrypsin (alpha-chymotrypsin),Sensitivity to trypsin (Trypsin),Bacteriocin activity in treated seals [5],Effect of catalase on antimicrobial activity (Catalase),Growth of sensitive cells on media containing lacticin 3147 [6],"Level of bacteriocin in cheese (L. lactis AM2; cheese trial 1, constant over the 28-week ripening period)","Level of bacteriocin in cheese (L. lactis AM2; cheese trial 2, constant over the ripening period)"
nisin,400 µg/mL,100 µg/mL,–,–,–,–,–,–,–,–,–,–,–,–,–,–
lacticin 3147,–,–,0.003%,not to pepsin,99.99%,more than 50%,12.5%,sensitive,sensitive,sensitive,sensitive,negligible bacteriocin activity,no effect,failed to grow,approximately 1.280 AU/ml,approximately 1.280 AU/ml
